This note sets out measurements from patent US20170143653A1, “USE OF SULINDAC FOR PROTECTING RETINAL PIGMENT EPITHELIAL CELLS AGAINST OXIDATIVE STRESS” (CHS PHARMA, INC., priority 2011, published 2017).

Common to all, as to assay type: cell-based
Data set [1] concerns RPE cells. In words: Reversal of sulindac protection of RPE cells against UV damage by PKC/PKG inhibitors. The following applies: for reversal of the protective effect of sulindac against UV damage: 1200 mj UVB, rottlerin at 3 uM. The method, then: (§1) The ability of sulindac to protect RPE cells against oxidative stress was determined by analyzing cellular viability following treatment of cultured ARPE19 cells with sulindac, before exposing the cells to conditions leading to oxidative damage. Following 24 hr treatment of the cells with sulindac, ARPE19 cells were exposed to either a range of tert-Butyl Hydrogen peroxide (t-BHP) concentrations for 24 hrs or a range of intensities of ultraviolet B (UVB) to induce oxidative stress. To test the involvement of PKC, the non-specific PKC blocker chelerythrine and also specific blockers for individual isoforms of PKC were used. The possible role of PKG was investigated by the addition of PKG inhibitor Rp-8-Br-PET-CGMPs along with sulindac. Western blotting was used to detect induction of late phase markers of preconditioning.
The sulindac protective effect on RPE cells is due to ischemic preconditioning. The IPC response in tissues is often initiated by ROS and/or NO which activates mitochondrial PKC epsilon as part of a complex mechanism that also involves the opening of the mitochondrial ATP sensitive K+ channel and preventing the formation of the mitochondrial permeability transition pore. We have looked more closely at the possible role of PKC in the protection of RPE cells by sulindac, as was shown previously in cardiac studies. […] Based on previous preconditioning studies it seemed reasonable to look specifically at PKC epsilon. […] In the previous cardiac study it was also shown that two late stage preconditioning markers, iNOS and Hsp27 were induced by sulindac.
The role of PKG in the sulindac protective effect was examined. The above results support previous studies that agents that can initiate an ischemic preconditioning response may have therapeutic value in delaying the onset, or slowing the progression, of retinal diseases arising from ischemia and oxidative damage. […] Both sulindac and sildenafil are known to be inhibitors of PDE5, which results in increasing the level of cGMP and activation of PKG. […]

Data set [2] has as its system RPE cells. Description: Protection of RPE cells against UVB radiation damage, cell viability. The method, then: as §1
It seemed reasonable to investigate whether sulindac could also protect other cells, such as RPE cells, which are susceptible to oxidative damage and known to have a strong ischemic preconditioning (IPC) response. Two types of oxidative stress were used in these experiments, either exposure of the RPE cells to an oxidizing agent such as TBHP, or exposure to UV light. In these experiments the RPE cells were pretreated for 24 hours with varying concentrations of sulindac, sulindac sulfone or sildenafil as described in the Figures. […] To determine whether this protective effect was due to the NSAID activity of sulindac, sulindac sulfone, a metabolite, of sulindac that has no NSAID activity was tested in place of sulindac for its UV protective effect. […] It should also be noted that sulindac sulfone is not a substrate for the Msr system which eliminates the possibility that the sulindac protective effect was related to its being a substrate for the Msr enzymes and functioning as a catalytic anti-oxidant in an ROS scavenging system.

For data set [3], the system named is ARPE-19 cells. In words: Protection of ARPE-19 cells against 24 hr hypoxic stress, cell viability. Conditions: 24 hours preincubation, 24 hr hypoxia. The protocol: (§2) For protecting RPE cells from oxidative stress induced damage we used the NSAID, sulindac. For our experiment we used ARPE-19 cells cultured in 96 well plates. The cells were preincubated with sulindac for 48 hours prior to exposing them to oxidative stress. Our oxidizing agents of choice were TBHP and Hydrogen peroxide (H2O2). We also stressed the ARPE-19 cells with 24 hours of Hypoxia treatment. After the stress the cellular viability was evaluated using the MTS assay. This assay uses a tetrazolium compound that is bioreduced into a formazan product in the cells. The signal generated (color intensity) is directly proportional to the number of viable (metabolically active) cells in the wells.
To test the ability of sulindac; in protecting against a variety of stresses ARPE-19 cells were exposed to 24 hours of hypoxic stress following sulindac preincubation. The ARPE-19 cells were grown in 96 well plates inside a hypoxia chamber having only 5% oxygen for 24 hours to induce hypoxic stress. Prior to exposing the cells to hypoxia, one set of cells was incubated 24 hours with sulindac.

Data set [4] relates to ARPE-19 cells. Description: Protection of ARPE-19 cells against H2O2 induced oxidative stress, cell viability. The following applies: incubated 24 hrs, then 50 μM H2O2. The method, then: as §2
The next experiment was designed to determine if preincubation with sulindac is also effective in protecting ARPE-19 cells against oxidative stress induced by treatment of retina cells with H2O2. Cells were incubated with sulindac for 24 hrs and then exposed to 50 μM H2O2.

The test system of data set [5] is ARPE-19 cells. The following applies: human, 48 h. The method, then: as §2
(§3) ARPE-19 cells were preincubated with different concentrations of sulindac ranging from 50 uM to 400 μM.

The next data set concerns Hsp27. In words: Western blot of late phase preconditioning marker Hsp27 in RPE cells. The following applies: RPE cells pretreated 48 hours. The method, then:
as §1
(§4) The sulindac protective effect on RPE cells is due to ischemic preconditioning. The IPC response in tissues is often initiated by ROS and/or NO which activates mitochondrial PKC epsilon as part of a complex mechanism that also involves the opening of the mitochondrial ATP sensitive K+ channel and preventing the formation of the mitochondrial permeability transition pore. We have looked more closely at the possible role of PKC in the protection of RPE cells by sulindac, as was shown previously in cardiac studies. […]
In general terms: In western blotting, separated proteins are transferred to a membrane and probed.

Data set [6] concerns ARPE-19 cells. Description: Protection of ARPE-19 cells against TBHP oxidative stress, cell viability (MTS). The method, then: as §2, §3, §1
It seemed reasonable to investigate whether sulindac could also protect other cells, such as RPE cells, which are susceptible to oxidative damage and known to have a strong ischemic preconditioning (IPC) response. Two types of oxidative stress were used in these experiments, either exposure of the RPE cells to an oxidizing agent such as TBHP, or exposure to UV light. […]

In a further data set the test system is iNOS. In words: Western blot of late phase preconditioning marker iNOS in RPE cells. Conditions: RPE cells pretreated 48 hours. The method, then: as §1, §4

“Also recorded” adds a separate entry of the source.

For the compound `O=c1c2nc(Br)n([C@@H]3O[C@@H]4CO[P@@](O)(=S)O[C@H]4[C@H]3O)c2nc2[nH]c(-c3ccccc3)cn12` [Rp-8-Br-PET-CGMPs], the “inhibition of the sulindac protective effect on RPE cells exposed to UV damage” value in the data set on RPE cells [1] (250 nM, 24 hours with sulindac) was more than 50%.
For the compound `COc1ccc2c(c[n+](C)c3c4cc5c(cc4ccc23)OCO5)c1OC` [chelerythrin], the “reversal of the protective effect of sulindac against UV damage” value in the data set on RPE cells [1] is reported as “significantly reversed”.
Still for that read-out and setting: to `CC(=O)c1c(O)c(C)c(O)c(Cc2c(O)c3c(c(C(=O)/C=C/c4ccccc4)c2O)OC(C)(C)C=C3)c1O` [rottlerin] belongs “no reversal”.
As for `CCCc1nn(C)c2c(=O)[nH]c(-c3cc(S(=O)(=O)N4CCN(C)CC4)ccc3OCC)nc12` [sildenafil], the “protection against UV damage” value in the data set with RPE cells [2] (20 uM, 1200 mj UVB) is given as “can also protect RPE cells against UV damage similar to sulindac”.
On to `CC1=C(CC(=O)O)c2cc(F)ccc2/C1=C\c1ccc(S(C)(=O)=O)cc1` [sulindac sulfone], for which the “protection against hypoxia induced stress (cell viability)” value in the data set on ARPE-19 cells [3] is “partial protection”. The “protection against H2O2 induced oxidative stress” value with ARPE-19 cells [4] is given as “only partial protection”. For the same compound, the “protection against UV damage” value in the data set with RPE cells [2] (200 uM, 24 hours pretreatment) is on record as “complete protection”.
Take `CC1=C(CC(=O)O)c2cc(F)ccc2/C1=C\c1ccc([S+](C)[O-])cc1` (centres unmarked) [sulindac]: in the data set on ARPE-19 cells [5], the “sulindac concentration toxic to ARPE-19 cells (acute reduction of cell viability)” value is listed as not below 200 μM. Besides, in the data set on Hsp27, the “induction of Hsp27” value is listed as “significant induction”. In addition, the “protection against hypoxia induced stress (cell viability)” value in the data set on ARPE-19 cells [3] is reported as “significant protection; also recorded: higher viability”. The “protection against H2O2 induced oxidative stress” value in the data set on ARPE-19 cells [4] was “capable of protecting retina cells against H2O2 induced oxidative stress”. Further, in the data set on ARPE-19 cells [6] (24 hrs pretreatment, t-BHP 24 hrs), the “protection against t-BHP insult, survival” value was “protected them against both types of insult and enhanced survival”. In the data set with ARPE-19 cells [6] (ARPE-19 cells preincubated with 50 uM to 400 μM sulindac, 48 hours, MTS assay), the “protection against loss of cell viability due to oxidative stress by TBHP” value is on record as “protected the ARPE-19 cells against loss of cell viability”. In the data set on ARPE-19 cells [6] (sulindac 125 and 200 uM, 24 hours pretreatment, varying TBHP), the “protection against TBHP damage (cell viability)” value is “essentially complete protections”. The “protection against UV exposure” value with RPE cells [2] (500 uM, 24 hours pretreatment, 1200 mj UV) was 50%. The “protection against UVB insult, survival” value in the data set on RPE cells [2] (24 hrs pretreatment, range of UVB intensities) is “protected them against both types of insult and enhanced survival”. Also, the “induction of iNOS” value in the data set with iNOS was “significant induction”.
